Test results as given in PubChem BioAssay AID292 (DTP/NCI, 2004).
“And” between values parts separate entries of the source, which are not always exact repeats. Equal entries are not always repeated. Inconclusive results and toxic doses are left out.

System: B6C3F1 mice, ip Sarcoma M5076, median survival T/C
Assay: NCI In Vivo Anticancer Drug Screen. Data for tumor model Sarcoma M5076 (intraperitoneal) in B6C3F1 mice
Details: endpoint: median survival time, schedule: Q04DX004 (ip), higher = longer survival
Summary of the method: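 The readout is a ratio of survival in drug-treated animals to survival in animals given vehicle alone, taken in mice bearing a transplanted tumour line.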

[1] = dose: 100.0 mg/kg/injection, vehicle: saline with Tween-80
[2] = dose: 200.0 mg/kg/injection, vehicle: saline with Tween-80
[3] = dose: 400.0 mg/kg/injection, vehicle: saline with Tween-80
[4] = dose: 800.0 mg/kg/injection, vehicle: saline with Tween-80
[5] = dose: 25.0 mg/kg/injection, vehicle: Klucel (hydroxypropylcellulose) (HPC)
[6] = dose: 50.0 mg/kg/injection, vehicle: Klucel (hydroxypropylcellulose) (HPC)
[7] = dose: 100.0 mg/kg/injection, vehicle: Klucel (hydroxypropylcellulose) (HPC)
[8] = dose: 200.0 mg/kg/injection, vehicle: Klucel (hydroxypropylcellulose) (HPC)
[9] = dose: 75.0 mg/kg/injection, vehicle: saline with Tween-80
[10] = dose: 400.0 mg/kg/injection, vehicle: Klucel (hydroxypropylcellulose) (HPC)
[11] = dose: 800.0 mg/kg/injection, vehicle: Klucel (hydroxypropylcellulose) (HPC)
[12] = dose: 12.5 mg/kg/injection, vehicle: saline with Tween-80
[13] = dose: 25.0 mg/kg/injection, vehicle: saline with Tween-80
[14] = dose: 50.0 mg/kg/injection, vehicle: water
[15] = dose: 50.0 mg/kg/injection, vehicle: saline with Tween-80

O=c1[nH]c(=O)n(C2CC(O)C(CO)O2)cc1I (stereo unspecified)
T/C [1]: 103 % of control and 117 % of control
T/C [2]: 108 % of control and 118 % of control
T/C [3]: 122 % of control
T/C [4]: 158 % of control
T/C (dose: 1600.0 mg/kg/injection, vehicle: saline with Tween-80): 243 % of control

Nc1nc(=O)nc2[nH]c3c4cccc5cccc(c3nc12)c54 (tested in a mixture with another compound)
T/C (dose: 18.75 mg/kg/injection, vehicle: Klucel (hydroxypropylcellulose) (HPC)): 104 % of control
T/C (dose: 37.5 mg/kg/injection, vehicle: Klucel (hydroxypropylcellulose) (HPC)): 102 % of control
T/C (dose: 75.0 mg/kg/injection, vehicle: Klucel (hydroxypropylcellulose) (HPC)): 104 % of control
T/C (dose: 150.0 mg/kg/injection, vehicle: Klucel (hydroxypropylcellulose) (HPC)): 98 % of control
T/C (dose: 300.0 mg/kg/injection, vehicle: Klucel (hydroxypropylcellulose) (HPC)): 94 % of control

CCn1c(-c2ccc(OC(C)=O)cc2)c(C)c2cc(OC(C)=O)ccc21
T/C [5]: 102 % of control
T/C [6]: 107 % of control
T/C [7]: 87 % of control
T/C [8]: 90 % of control

Cc1ccc(-c2c([N+](=O)[O-])c3ccccn3c2[N+](=O)[O-])cc1
T/C [9]: 97 % of control
T/C (dose: 150.0 mg/kg/injection, vehicle: saline with Tween-80): 87 % of control
T/C (dose: 300.0 mg/kg/injection, vehicle: saline with Tween-80): 87 % of control
T/C (dose: 600.0 mg/kg/injection, vehicle: saline with Tween-80): 101 % of control

O=C1CNC(=O)N1CN1CCOCC1
T/C [6]: 110 % of control
T/C [7]: 106 % of control
T/C [8]: 108 % of control
T/C [10]: 115 % of control
T/C [11]: 106 % of control

COc1cc2c(c3c1c(=O)c1ccccc1n3C)C=C([N+](=O)[O-])C(C)(C)O2
T/C (dose: 25.0 mg/kg/injection, vehicle: saline + Tween-80 + alcohol): 104 % of control
T/C (dose: 50.0 mg/kg/injection, vehicle: saline + Tween-80 + alcohol): 90 % of control

COc1cc2c(c3c1c(=O)c1ccccc1n3C)C=CC(C)(C)O2
T/C [12]: 112 % of control
T/C [13]: 121 % of control
T/C (dose: 166.7 mg/kg/injection, vehicle: saline with Tween-80): 110 % of control

Nc1nc(N)c2cc(C=O)ccc2n1
T/C (dose: 3.13 mg/kg/injection, vehicle: water): 91 % of control and 98 % of control
T/C (dose: 6.25 mg/kg/injection, vehicle: water): 94 % of control
T/C (dose: 12.5 mg/kg/injection, vehicle: water): 101 % of control and 103 % of control
T/C [14]: 88 % of control

CC(=O)Nc1ccc(Nc2ccc(C(=C3C=CC(=[N+](C)CCC#N)C=C3)c3ccc(N(C)CCC#N)cc3)cc2)cc1
T/C [12]: 101 % of control
T/C [13]: 101 % of control
T/C [15]: 99 % of control
T/C [1]: 100 % of control
T/C [2]: 92 % of control

O=[N+]([O-])c1ccc(/C=C/C=C/C=C/C=C/c2ccc(S(=O)(=O)F)cc2Cl)c(Cl)c1
T/C (dose: 18.75 mg/kg/injection, vehicle: saline with Tween-80): 95 % of control
T/C (dose: 37.5 mg/kg/injection, vehicle: saline with Tween-80): 96 % of control
T/C [9]: 98 % of control

CCC1C(C#N)C(=O)NC(=O)C1C#N (stereo unspecified)
T/C [6]: 104 % of control
T/C [7]: 106 % of control
T/C [8]: 107 % of control
T/C [10]: 104 % of control
T/C [11]: 110 % of control

NCCCN=c1ccc2c3c1c(O)c1c(O)ccc(=O)c1c3[nH]n2CCNCCO
T/C (dose: 8.0 mg/kg/injection, vehicle: water): 171 % of control
T/C (dose: 16.0 mg/kg/injection, vehicle: water): 186 % of control

COc1ccc(OC)c(Cc2cnc3nc(N)nc(N)c3c2C)c1
T/C (dose: 25.0 mg/kg/injection, vehicle: water): 95 % of control
T/C [14]: 115 % of control

Clc1ccc(-c2noc(CN3CCCCC3)n2)cc1
T/C [15]: 92 % of control
T/C [1]: 96 % of control
T/C [2]: 97 % of control

CN(C)CCOCC(O)(c1ccccc1)c1ccccc1
T/C (dose: 37.5 mg/kg/injection, vehicle: saline): 100 % of control
T/C (dose: 75.0 mg/kg/injection, vehicle: saline): 100 % of control

CN(C)c1ccc2c(SCC(=O)OCC(=O)[C@@]3(O)CC[C@H]4[C@@H]5CCC6=CC(=O)C=C[C@]6(C)[C@H]5C(=O)C[C@@]43C)c3ccc(N(C)C)cc3nc2c1
T/C [5]: 101 % of control
T/C [6]: 103 % of control
T/C [7]: 97 % of control
T/C [8]: 90 % of control
T/C [10]: 94 % of control

Cn1c2ccccc2c2ccc3c(c21)C(=O)C=CC3=O
T/C [5]: 93 % of control
T/C [6]: 98 % of control

N=C(N)Sc1ccccn1
T/C (dose: 62.5 mg/kg/injection, vehicle: saline): 97 % of control
T/C (dose: 125.0 mg/kg/injection, vehicle: saline): 101 % of control
T/C (dose: 250.0 mg/kg/injection, vehicle: saline): 90 % of control

CC(C)(C)c1ccc(C(=O)N2CCOC23CCCCC3)cc1
T/C [15]: 101 % of control and 103 % of control
T/C [1]: 93 % of control and 103 % of control
T/C [2]: 97 % of control and 98 % of control
T/C [3]: 91 % of control and 100 % of control
T/C [4]: 89 % of control and 93 % of control

CCN(CC)Cc1c(OC)ccc2[nH]c3c4ccc(Cl)cc4ncc3c12
T/C (dose: 15.63 mg/kg/injection, vehicle: saline with Tween-80): 104 % of control
T/C (dose: 31.25 mg/kg/injection, vehicle: saline with Tween-80): 106 % of control
T/C (dose: 62.5 mg/kg/injection, vehicle: saline with Tween-80): 105 % of control
T/C (dose: 125.0 mg/kg/injection, vehicle: saline with Tween-80): 101 % of control
T/C (dose: 250.0 mg/kg/injection, vehicle: saline with Tween-80): 100 % of control

O=C(CN1CCOCC1)Nc1nc(-c2ccc(Cl)cc2)cs1
T/C (dose: 6.25 mg/kg/injection, vehicle: DMSO): 100 % of control
T/C (dose: 12.5 mg/kg/injection, vehicle: DMSO): 93 % of control
T/C (dose: 25.0 mg/kg/injection, vehicle: DMSO): 121 % of control
T/C [13]: 112 % of control
T/C (dose: 50.0 mg/kg/injection, vehicle: DMSO): 89 % of control
T/C [15]: 92 % of control
T/C (dose: 100.0 mg/kg/injection, vehicle: DMSO): 87 % of control and 92 % of control
T/C [1]: 91 % of control
T/C [2]: 98 % of control
T/C [3]: 105 % of control

COc1cc([C@@H]2c3cc4c(c(O)c3C[C@H]3COC(=O)[C@@H]32)OCO4)cc(OC)c1OC
T/C (dose: 4.8 mg/kg/injection, vehicle: suspension in saline): 159 % of control
T/C (dose: 8.0 mg/kg/injection, vehicle: suspension in saline): 163 % of control
T/C (dose: 13.3 mg/kg/injection, vehicle: suspension in saline): 155 % of control

Cc1nc2cc[nH]n2c(=O)c1CCc1ccccc1
T/C [15]: 107 % of control
T/C [1]: 94 % of control
T/C [2]: 96 % of control

N=C(N)c1ccc(Nc2ccc(-c3cc4ccc(C(=N)N)cc4[nH]3)cc2)cc1
T/C (dose: 3.75 mg/kg/injection, vehicle: Klucel (hydroxypropylcellulose) (HPC)): 115 % of control

C=CC1(C)CC(=O)C2(O)C(C)(O1)C(OC(C)=O)C(O)C1C(C)(C)CCC(O)C12C (stereo unspecified)
T/C (dose: 2.0 mg/kg/injection, vehicle: DMSO): 98 % of control
T/C (dose: 4.0 mg/kg/injection, vehicle: DMSO): 104 % of control
T/C (dose: 8.0 mg/kg/injection, vehicle: DMSO): 98 % of control
T/C (dose: 16.0 mg/kg/injection, vehicle: DMSO): 96 % of control and 101 % of control
T/C (dose: 32.0 mg/kg/injection, vehicle: DMSO): 95 % of control and 107 % of control
